Assay results published in ChEMBL document CHEMBL1154580, “Identification and total synthesis of a novel dimethylated fatty acid from the Caribbean sponge Calyx podatypa” (2000).
≈ marks a conversion by molar mass, not a printed value.

System: Streptococcus mutans
Experiment: Antimicrobial activity against Streptococcus mutans MT509
Assay type: functional

| MIC [µg/mL] | Structure (SMILES) |
| --- | --- |
| 3.13 (≈ 12.9 µM) | CC(C)CCCCCCCCCCCC(=O)O |
| 3.13 (≈ 12.9 µM) | CCC(C)CCCCCCCCCCC(=O)O (configuration not stated) |
